From patent publication US20240408145A1, “Gene Therapy” (Ospedale San Raffaele S.r.l., priority 2021, published 2024)
Entries after “also recorded” stand apart in the source; their conditions may differ.

Tests used:
human CD34+ HSPCs = experiment: HDR gene editing efficiency in HSPCs (ddPCR, GFP flow cytometry); type: cell-based
IL1A, IL8, IL6, CCL2 = experiment: Inflammatory cytokine expression in edited HSPCs (qPCR); type: cell-based, human; details: CB HSPCs, HS/AAV6; inhibitor at time of GE vs standard protocol
edited human CD34+ HSPCs = experiment: CD34+ HSPC xenotransplantation in NSG mice; type: in vivo
IL8, CXCL10, p21, p16 = experiment: Gene expression in BM-derived HSPCs (qPCR); type: cell-based, human; details: HS/AAV6 ± Anakinra
Method: For gene expression analyses, total RNA was extracted using either miRNeasy Micro Kit (QIAGEN) according to the manufacturer's instructions and DNase treatment was performed using RNase-free DNase Set (QIAGEN). cDNA was synthetized with iScript cDNA Synthesis Kit (Bio-Rad). cDNA was then pre-amplified using TaqMan PreAmp Master Mix (ThermoFisher) and used for q-PCR in a Viia7 Real-time PCR thermal cycler using both Fast SYBR Green Master Mix (Thermofisher), after standard curve method optimization to reach the 100% primer efficiency for each couple of primers listed in 1. The relative expression of each target gene was first normalized to GUSB housekeeping genes expression and then represented as 2^-DCt for each sample or as fold changes (2^-DDCt) relative to the indicated control conditions.

[1] = tested on: BM-derived human CD34+ cells; experiment: Senescence markers (p16, SA-β-Gal) in BM-derived cells of the human graft; type: in vivo, NSG mice

## Anakinra: recombinant and slightly modified form of the Human interleukin-1 receptor antagonist (IL-1Ra); SEQ ID NO: 3
Human CD34+ HSPCs; CB HSPCs, AAVS1 editing (HS/AAV6), inhibitor at time of GE (Anakinra 50 ng/μl, SC514 25 μM, GSE56 mRNA, ATMi) vs standard protocol
  Percentage of HDR-edited alleles (ddPCR): equal percentage of HDR-edited alleles; also recorded: did not affect HSPC ability to repair via HDR
Human CD34+ HSPCs; CB HSPCs, HS/AAV6, inhibitor at time of GE vs standard protocol
  Percentage of GFP+ cells within HSPC subpopulations (GE efficiency): maintained the efficiency of GE across all HSPC subpopulations; also recorded: no significant differences in GE efficiency in all HSPC subpopulations
Human CD34+ HSPCs; HSPCs edited with COMBO
  HSPC ability to repair via HDR (GFP+ cells): without impairing HSPC ability to repair via HDR
Human CD34+ HSPCs; mPB-derived HSPCs, AAVS1, inhibitor within 15 minutes upon GE
  HDR ability / percentage of GFP+ cells in HSPC subpopulations: did not affect HSPC ability to repair via HDR
IL1A, IL8, IL6, CCL2
  Relative expression of inflammatory cytokine genes (IL1A, IL8, IL6, CCL2): downregulated 96 h upon Anakinra treatment
Edited human CD34+ HSPCs; HS/AAV6 ± Anakinra
  Percentage of human edited (GFP+) cells in peripheral blood: higher and stable percentage of GFP+ cells; also recorded: reproducible higher and stable levels of HDR-edited cells
Edited human CD34+ HSPCs; endpoint, HS/AAV6 ± Anakinra
  Percentage of GFP+ cells in BM human graft, HSPC, B and myeloid lineages: improved long-term reconstitution
Edited human CD34+ HSPCs; mPB HSPCs, 15 weeks
  Percentage of human HDR-edited cells in bone marrow: trend of higher levels of HDR-edited cells
Edited human CD34+ HSPCs; mPB HSPCs, matching low doses, 15 weeks
  Percentage of human CD45+ cells in bone marrow: comparable human engraftment independently of Anakinra treatment
Edited human CD34+ HSPCs; saturating cell doses, HS/AAV6 ± Anakinra
  Percentage of human CD45+ cells in peripheral blood (plateau of circulating cells): 35-40%
IL8, CXCL10, p21, p16
  Relative expression of pro-inflammatory cytokines (IL8, CXCL10) in BM-derived edited CD34+ cells: decrease in pro-inflammatory cytokines expression
[1]; NSG mice, endpoint 15-18 weeks, inhibitor at time of ex vivo GE
  Percentage of senescent cells (p16, SA-β-Gal) in BM-derived CD34+ / HDR-edited cells of the human graft: decrease
[1]; mPB HSPCs, BM-derived HSPC
  Senescence burden (p16+) in the human graft: reduction in the senescence burden in the human graft; also recorded: dampened GE-related senescence establishment
